Reference: ChEMBL document CHEMBL5724914, “Linking interpersonal differences in gut microbiota composition and drug biotransformation activity” (2024)

Settings: human gut metagenome, 24 h, 2 µM
Further: call rule not given here.

SMILES | Bacterial Biotransformation
O=c1[nH]c2ccccc2n1C1CCN(CCCC(c2ccc(F)cc2)c2ccc(F)cc2)CC1 [PIMOZIDE] | Compound metabolized
CN1CC(=O)N2[C@H](c3ccc4c(c3)OCO4)c3[nH]c4ccccc4c3C[C@@H]2C1=O | Compound metabolized
COc1cc2nc(N(C)CCCNC(=O)C3CCCO3)nc(N)c2cc1OC (stereo not given) [ALFUZOSIN] | Compound metabolized
CC(C)NCC(O)COc1ccc(CCOCC2CC2)cc1 (stereo not given) [BETAXOLOL] | Compound NOT metabolized

Settings: human gut metagenome, 24 h, 2 µM
Remark: another data set of the same source

SMILES | Bacterial Biotransformation
O=c1[nH]c2ccccc2n1C1CCN(CCCC(c2ccc(F)cc2)c2ccc(F)cc2)CC1 [PIMOZIDE] | Compound metabolized
CN1CC(=O)N2[C@H](c3ccc4c(c3)OCO4)c3[nH]c4ccccc4c3C[C@@H]2C1=O | Compound metabolized
COc1cc2nc(N(C)CCCNC(=O)C3CCCO3)nc(N)c2cc1OC (stereo not given) [ALFUZOSIN] | Compound metabolized
CC(C)NCC(O)COc1ccc(CCOCC2CC2)cc1 (stereo not given) [BETAXOLOL] | Compound NOT metabolized

Test: (§1) The drug is tested on WLS-010 corresponding to human gut metagenome with ENA study accession number: PRJEB37062 and ENA sample accession number: ERS12561743 for biotransformation under anaerobic condition. The drug concentrations were measured over 9 timepoints collected between 0 and 24 hours of incubation by liquid-chromatography-coupled mass spectrometry (LC–MS)
Settings: 2 µM

SMILES | Bacterial Biotransformation
O=c1[nH]c2ccccc2n1C1CCN(CCCC(c2ccc(F)cc2)c2ccc(F)cc2)CC1 [PIMOZIDE] | Compound metabolized
CN1CC(=O)N2[C@H](c3ccc4c(c3)OCO4)c3[nH]c4ccccc4c3C[C@@H]2C1=O | Compound metabolized
COc1cc2nc(N(C)CCCNC(=O)C3CCCO3)nc(N)c2cc1OC (stereo not given) [ALFUZOSIN] | Compound metabolized
CC(C)NCC(O)COc1ccc(CCOCC2CC2)cc1 (stereo not given) [BETAXOLOL] | Compound NOT metabolized

Settings: human gut metagenome, 24 h, 2 µM
Remark: another data set of the same source

SMILES | Bacterial Biotransformation
O=c1[nH]c2ccccc2n1C1CCN(CCCC(c2ccc(F)cc2)c2ccc(F)cc2)CC1 [PIMOZIDE] | Compound metabolized
CN1CC(=O)N2[C@H](c3ccc4c(c3)OCO4)c3[nH]c4ccccc4c3C[C@@H]2C1=O | Compound metabolized
COc1cc2nc(N(C)CCCNC(=O)C3CCCO3)nc(N)c2cc1OC (stereo not given) [ALFUZOSIN] | Compound metabolized
CC(C)NCC(O)COc1ccc(CCOCC2CC2)cc1 (stereo not given) [BETAXOLOL] | Compound NOT metabolized

Test: as §1, with “WLS-027” for “WLS-010”, “ERS12561744” for “ERS12561743”
Settings: 2 µM

SMILES | Bacterial Biotransformation
O=c1[nH]c2ccccc2n1C1CCN(CCCC(c2ccc(F)cc2)c2ccc(F)cc2)CC1 [PIMOZIDE] | Compound metabolized
CN1CC(=O)N2[C@H](c3ccc4c(c3)OCO4)c3[nH]c4ccccc4c3C[C@@H]2C1=O | Compound metabolized
COc1cc2nc(N(C)CCCNC(=O)C3CCCO3)nc(N)c2cc1OC (stereo not given) [ALFUZOSIN] | Compound NOT metabolized
CC(C)NCC(O)COc1ccc(CCOCC2CC2)cc1 (stereo not given) [BETAXOLOL] | Compound NOT metabolized

Settings: human gut metagenome, 24 h, 2 µM
Remark: another data set of the same source

SMILES | Bacterial Biotransformation
O=c1[nH]c2ccccc2n1C1CCN(CCCC(c2ccc(F)cc2)c2ccc(F)cc2)CC1 [PIMOZIDE] | Compound NOT metabolized
CN1CC(=O)N2[C@H](c3ccc4c(c3)OCO4)c3[nH]c4ccccc4c3C[C@@H]2C1=O | Compound metabolized
COc1cc2nc(N(C)CCCNC(=O)C3CCCO3)nc(N)c2cc1OC (stereo not given) [ALFUZOSIN] | Compound NOT metabolized
CC(C)NCC(O)COc1ccc(CCOCC2CC2)cc1 (stereo not given) [BETAXOLOL] | Compound NOT metabolized

Test: as §1, with “Z-023” for “WLS-010”, “to” for “to human gut”, “ERS12561822” for “ERS12561743”
Settings: 2 µM

SMILES | Bacterial Biotransformation
O=c1[nH]c2ccccc2n1C1CCN(CCCC(c2ccc(F)cc2)c2ccc(F)cc2)CC1 [PIMOZIDE] | Compound NOT metabolized
CN1CC(=O)N2[C@H](c3ccc4c(c3)OCO4)c3[nH]c4ccccc4c3C[C@@H]2C1=O | Compound metabolized
COc1cc2nc(N(C)CCCNC(=O)C3CCCO3)nc(N)c2cc1OC (stereo not given) [ALFUZOSIN] | Compound NOT metabolized
CC(C)NCC(O)COc1ccc(CCOCC2CC2)cc1 (stereo not given) [BETAXOLOL] | Compound metabolized

Test: as §1, with “Z-006” for “WLS-010”, “mouse” for “human”, “ERS12561806” for “ERS12561743”
Settings: 2 µM

SMILES | Bacterial Biotransformation
O=c1[nH]c2ccccc2n1C1CCN(CCCC(c2ccc(F)cc2)c2ccc(F)cc2)CC1 [PIMOZIDE] | Compound metabolized
CN1CC(=O)N2[C@H](c3ccc4c(c3)OCO4)c3[nH]c4ccccc4c3C[C@@H]2C1=O | Compound NOT metabolized
COc1cc2nc(N(C)CCCNC(=O)C3CCCO3)nc(N)c2cc1OC (stereo not given) [ALFUZOSIN] | Compound NOT metabolized
CC(C)NCC(O)COc1ccc(CCOCC2CC2)cc1 (stereo not given) [BETAXOLOL] | Compound NOT metabolized

Settings: human gut metagenome, 24 h, 2 µM
Remark: another data set of the same source

SMILES | Bacterial Biotransformation
O=c1[nH]c2ccccc2n1C1CCN(CCCC(c2ccc(F)cc2)c2ccc(F)cc2)CC1 [PIMOZIDE] | Compound NOT metabolized
CN1CC(=O)N2[C@H](c3ccc4c(c3)OCO4)c3[nH]c4ccccc4c3C[C@@H]2C1=O | Compound NOT metabolized
COc1cc2nc(N(C)CCCNC(=O)C3CCCO3)nc(N)c2cc1OC (stereo not given) [ALFUZOSIN] | Compound metabolized
CC(C)NCC(O)COc1ccc(CCOCC2CC2)cc1 (stereo not given) [BETAXOLOL] | Compound NOT metabolized

Test: as §1, with “Z-022” for “WLS-010”, “mouse” for “human”, “ERS12561821” for “ERS12561743”
Settings: 2 µM

SMILES | Bacterial Biotransformation
O=c1[nH]c2ccccc2n1C1CCN(CCCC(c2ccc(F)cc2)c2ccc(F)cc2)CC1 [PIMOZIDE] | Compound NOT metabolized
CN1CC(=O)N2[C@H](c3ccc4c(c3)OCO4)c3[nH]c4ccccc4c3C[C@@H]2C1=O | Compound metabolized
COc1cc2nc(N(C)CCCNC(=O)C3CCCO3)nc(N)c2cc1OC (stereo not given) [ALFUZOSIN] | Compound metabolized
CC(C)NCC(O)COc1ccc(CCOCC2CC2)cc1 (stereo not given) [BETAXOLOL] | Compound NOT metabolized

Test: as §1, with “WLS-098” for “WLS-010”, “ERS12561754” for “ERS12561743”
Settings: 2 µM

SMILES | Bacterial Biotransformation
O=c1[nH]c2ccccc2n1C1CCN(CCCC(c2ccc(F)cc2)c2ccc(F)cc2)CC1 [PIMOZIDE] | Compound metabolized
CN1CC(=O)N2[C@H](c3ccc4c(c3)OCO4)c3[nH]c4ccccc4c3C[C@@H]2C1=O | Compound metabolized
COc1cc2nc(N(C)CCCNC(=O)C3CCCO3)nc(N)c2cc1OC (stereo not given) [ALFUZOSIN] | Compound metabolized
CC(C)NCC(O)COc1ccc(CCOCC2CC2)cc1 (stereo not given) [BETAXOLOL] | Compound metabolized

Test: as §1, with “Z-025” for “WLS-010”, “rabbit” for “human”, “ERS12561824” for “ERS12561743”
Settings: 2 µM

SMILES | Bacterial Biotransformation
O=c1[nH]c2ccccc2n1C1CCN(CCCC(c2ccc(F)cc2)c2ccc(F)cc2)CC1 [PIMOZIDE] | Compound metabolized
CN1CC(=O)N2[C@H](c3ccc4c(c3)OCO4)c3[nH]c4ccccc4c3C[C@@H]2C1=O | Compound NOT metabolized
COc1cc2nc(N(C)CCCNC(=O)C3CCCO3)nc(N)c2cc1OC (stereo not given) [ALFUZOSIN] | Compound NOT metabolized
CC(C)NCC(O)COc1ccc(CCOCC2CC2)cc1 (stereo not given) [BETAXOLOL] | Compound metabolized

Settings: human gut metagenome, 24 h, 2 µM
Remark: another data set of the same source

SMILES | Bacterial Biotransformation
O=c1[nH]c2ccccc2n1C1CCN(CCCC(c2ccc(F)cc2)c2ccc(F)cc2)CC1 [PIMOZIDE] | Compound NOT metabolized
CN1CC(=O)N2[C@H](c3ccc4c(c3)OCO4)c3[nH]c4ccccc4c3C[C@@H]2C1=O | Compound NOT metabolized
COc1cc2nc(N(C)CCCNC(=O)C3CCCO3)nc(N)c2cc1OC (stereo not given) [ALFUZOSIN] | Compound NOT metabolized
CC(C)NCC(O)COc1ccc(CCOCC2CC2)cc1 (stereo not given) [BETAXOLOL] | Compound NOT metabolized

Test: as §1, with “WLS-052” for “WLS-010”, “ERS12561747” for “ERS12561743”
Settings: 2 µM

SMILES | Bacterial Biotransformation
O=c1[nH]c2ccccc2n1C1CCN(CCCC(c2ccc(F)cc2)c2ccc(F)cc2)CC1 [PIMOZIDE] | Compound metabolized
CN1CC(=O)N2[C@H](c3ccc4c(c3)OCO4)c3[nH]c4ccccc4c3C[C@@H]2C1=O | Compound metabolized
COc1cc2nc(N(C)CCCNC(=O)C3CCCO3)nc(N)c2cc1OC (stereo not given) [ALFUZOSIN] | Compound metabolized
CC(C)NCC(O)COc1ccc(CCOCC2CC2)cc1 (stereo not given) [BETAXOLOL] | Compound NOT metabolized

Settings: human gut metagenome, 24 h, 2 µM
Remark: another data set of the same source

SMILES | Bacterial Biotransformation
O=c1[nH]c2ccccc2n1C1CCN(CCCC(c2ccc(F)cc2)c2ccc(F)cc2)CC1 [PIMOZIDE] | Compound NOT metabolized
CN1CC(=O)N2[C@H](c3ccc4c(c3)OCO4)c3[nH]c4ccccc4c3C[C@@H]2C1=O | Compound NOT metabolized
COc1cc2nc(N(C)CCCNC(=O)C3CCCO3)nc(N)c2cc1OC (stereo not given) [ALFUZOSIN] | Compound NOT metabolized
CC(C)NCC(O)COc1ccc(CCOCC2CC2)cc1 (stereo not given) [BETAXOLOL] | Compound NOT metabolized

Settings: human gut metagenome, 24 h, 2 µM
Remark: another data set of the same source

SMILES | Bacterial Biotransformation
O=c1[nH]c2ccccc2n1C1CCN(CCCC(c2ccc(F)cc2)c2ccc(F)cc2)CC1 [PIMOZIDE] | Compound metabolized
CN1CC(=O)N2[C@H](c3ccc4c(c3)OCO4)c3[nH]c4ccccc4c3C[C@@H]2C1=O | Compound metabolized
COc1cc2nc(N(C)CCCNC(=O)C3CCCO3)nc(N)c2cc1OC (stereo not given) [ALFUZOSIN] | Compound NOT metabolized
CC(C)NCC(O)COc1ccc(CCOCC2CC2)cc1 (stereo not given) [BETAXOLOL] | Compound NOT metabolized

Test: as §1, with “WLS-039” for “WLS-010”, “ERS12561746” for “ERS12561743”
Settings: 2 µM

SMILES | Bacterial Biotransformation
O=c1[nH]c2ccccc2n1C1CCN(CCCC(c2ccc(F)cc2)c2ccc(F)cc2)CC1 [PIMOZIDE] | Compound NOT metabolized
CN1CC(=O)N2[C@H](c3ccc4c(c3)OCO4)c3[nH]c4ccccc4c3C[C@@H]2C1=O | Compound NOT metabolized
COc1cc2nc(N(C)CCCNC(=O)C3CCCO3)nc(N)c2cc1OC (stereo not given) [ALFUZOSIN] | Compound NOT metabolized
CC(C)NCC(O)COc1ccc(CCOCC2CC2)cc1 (stereo not given) [BETAXOLOL] | Compound NOT metabolized

Test: as §1, with “Z-021” for “WLS-010”, “to” for “to human gut”, “ERS12561820” for “ERS12561743”
Settings: 2 µM

SMILES | Bacterial Biotransformation
O=c1[nH]c2ccccc2n1C1CCN(CCCC(c2ccc(F)cc2)c2ccc(F)cc2)CC1 [PIMOZIDE] | Compound metabolized
CN1CC(=O)N2[C@H](c3ccc4c(c3)OCO4)c3[nH]c4ccccc4c3C[C@@H]2C1=O | Compound metabolized
COc1cc2nc(N(C)CCCNC(=O)C3CCCO3)nc(N)c2cc1OC (stereo not given) [ALFUZOSIN] | Compound NOT metabolized
CC(C)NCC(O)COc1ccc(CCOCC2CC2)cc1 (stereo not given) [BETAXOLOL] | Compound NOT metabolized

Settings: human gut metagenome, 24 h, 2 µM
Remark: another data set of the same source

SMILES | Bacterial Biotransformation
O=c1[nH]c2ccccc2n1C1CCN(CCCC(c2ccc(F)cc2)c2ccc(F)cc2)CC1 [PIMOZIDE] | Compound metabolized
CN1CC(=O)N2[C@H](c3ccc4c(c3)OCO4)c3[nH]c4ccccc4c3C[C@@H]2C1=O | Compound metabolized
COc1cc2nc(N(C)CCCNC(=O)C3CCCO3)nc(N)c2cc1OC (stereo not given) [ALFUZOSIN] | Compound metabolized
CC(C)NCC(O)COc1ccc(CCOCC2CC2)cc1 (stereo not given) [BETAXOLOL] | Compound metabolized

Test: as §1, with “Z-011” for “WLS-010”, “mouse” for “human”, “ERS12561811” for “ERS12561743”
Settings: 2 µM

SMILES | Bacterial Biotransformation
O=c1[nH]c2ccccc2n1C1CCN(CCCC(c2ccc(F)cc2)c2ccc(F)cc2)CC1 [PIMOZIDE] | Compound metabolized
CN1CC(=O)N2[C@H](c3ccc4c(c3)OCO4)c3[nH]c4ccccc4c3C[C@@H]2C1=O | Compound NOT metabolized
COc1cc2nc(N(C)CCCNC(=O)C3CCCO3)nc(N)c2cc1OC (stereo not given) [ALFUZOSIN] | Compound metabolized
CC(C)NCC(O)COc1ccc(CCOCC2CC2)cc1 (stereo not given) [BETAXOLOL] | Compound NOT metabolized
